Measured values reported in US7074789B2, “Kinase inhibitors” (Amgen Inc., priority 1999, dated 2006).
Where two headings read alike, the source gives them in different places.

Experiments:
Assay type in all cases: biochemical
[1] = biological target: T1, Tek (Homo sapiens, UniProt Q02763); test: Kinase inhibition assay (33P transfer), Tek; conditions: read-out: Tek-1
T1 construct: Kinases are expressed as either kinase domains or full length constructs; made in house
Summary of the method: (§1)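 Recombinant kinase domains or full-length GST- or His-tagged constructs, from E. coli or baculovirus/High Five cells, sometimes with regulatory polypeptides. Transfer of 33P from ATP to plate-bound poly(Glu,Tyr) 4:1 or poly(Arg,Ser) 3:1 counted by liquid scintillation after phosphoric acid wash; IC50 is the concentration halving incorporation.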

[2] = biological target: T2, Kdr (Homo sapiens, UniProt P35968); test: Kinase inhibition assay (33P transfer), Kdr; conditions: read-out: KDR-1
T2 construct: Kinases are expressed as either kinase domains or full length constructs; made in house
Summary of the method: (§2)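 Radiometric readout: 33P incorporated into surface-bound poly(Glu,Tyr) 4:1 or poly(Arg,Ser) 3:1 is counted by liquid scintillation after a 0.5% phosphoric acid wash. Enzymes were GST or polyHis fusions (kinase domain or full length) from E. coli or High Five insect cells.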

[3] = biological target: T3, c-Met (Homo sapiens, UniProt P08581); test: Kinase inhibition assay (33P transfer), c-Met; conditions: Table 2, kinase inhibition class; read-out: Met-1
T3 construct: Kinases are expressed as either kinase domains or full length constructs; made in house
T3 sequence (P08581 25-1390): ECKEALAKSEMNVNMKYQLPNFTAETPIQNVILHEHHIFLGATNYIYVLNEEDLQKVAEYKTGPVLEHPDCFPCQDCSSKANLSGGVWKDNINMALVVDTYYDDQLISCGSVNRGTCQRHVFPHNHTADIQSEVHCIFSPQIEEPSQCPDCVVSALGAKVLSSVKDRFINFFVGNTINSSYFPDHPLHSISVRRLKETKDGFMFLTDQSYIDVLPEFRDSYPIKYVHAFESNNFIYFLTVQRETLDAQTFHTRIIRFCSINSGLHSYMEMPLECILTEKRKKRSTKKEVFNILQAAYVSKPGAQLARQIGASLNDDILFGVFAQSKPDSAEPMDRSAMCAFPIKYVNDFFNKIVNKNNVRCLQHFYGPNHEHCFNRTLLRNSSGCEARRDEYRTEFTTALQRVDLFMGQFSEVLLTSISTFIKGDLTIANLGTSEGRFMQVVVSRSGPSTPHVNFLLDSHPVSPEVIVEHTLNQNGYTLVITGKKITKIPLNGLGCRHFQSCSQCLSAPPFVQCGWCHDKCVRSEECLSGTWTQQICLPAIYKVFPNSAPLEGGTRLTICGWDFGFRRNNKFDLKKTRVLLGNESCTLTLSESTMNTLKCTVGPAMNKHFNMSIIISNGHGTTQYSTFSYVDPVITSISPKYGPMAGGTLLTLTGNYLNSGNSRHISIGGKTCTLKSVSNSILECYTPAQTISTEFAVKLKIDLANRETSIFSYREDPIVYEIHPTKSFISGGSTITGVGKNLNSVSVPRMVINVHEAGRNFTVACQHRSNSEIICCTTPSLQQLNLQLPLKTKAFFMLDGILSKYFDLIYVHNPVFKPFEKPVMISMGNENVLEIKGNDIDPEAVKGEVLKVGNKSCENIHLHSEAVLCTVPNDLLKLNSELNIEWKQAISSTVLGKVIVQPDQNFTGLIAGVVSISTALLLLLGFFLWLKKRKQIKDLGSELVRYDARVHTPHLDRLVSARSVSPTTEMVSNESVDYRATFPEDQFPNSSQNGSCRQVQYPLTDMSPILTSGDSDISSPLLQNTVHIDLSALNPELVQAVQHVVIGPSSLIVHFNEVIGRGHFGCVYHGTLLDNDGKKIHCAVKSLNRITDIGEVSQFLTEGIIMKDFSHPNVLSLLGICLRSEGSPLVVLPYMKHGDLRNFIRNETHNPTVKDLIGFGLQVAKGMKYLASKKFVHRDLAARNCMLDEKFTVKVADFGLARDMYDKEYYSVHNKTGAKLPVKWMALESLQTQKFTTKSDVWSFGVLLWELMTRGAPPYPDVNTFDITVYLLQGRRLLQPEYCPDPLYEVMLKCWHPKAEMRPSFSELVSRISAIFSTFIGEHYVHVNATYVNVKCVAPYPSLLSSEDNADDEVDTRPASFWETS
Summary of the method: as §1

[4] = biological target: T4, Lck (Homo sapiens, UniProt P06239); test: Kinase inhibition assay (33P transfer), Lck; conditions: read-out: Lck-1
T4 construct: Kinases are expressed as either kinase domains or full length constructs; made in house
T4 sequence (P06239 whole entry, species assumed, the tested form may be a part): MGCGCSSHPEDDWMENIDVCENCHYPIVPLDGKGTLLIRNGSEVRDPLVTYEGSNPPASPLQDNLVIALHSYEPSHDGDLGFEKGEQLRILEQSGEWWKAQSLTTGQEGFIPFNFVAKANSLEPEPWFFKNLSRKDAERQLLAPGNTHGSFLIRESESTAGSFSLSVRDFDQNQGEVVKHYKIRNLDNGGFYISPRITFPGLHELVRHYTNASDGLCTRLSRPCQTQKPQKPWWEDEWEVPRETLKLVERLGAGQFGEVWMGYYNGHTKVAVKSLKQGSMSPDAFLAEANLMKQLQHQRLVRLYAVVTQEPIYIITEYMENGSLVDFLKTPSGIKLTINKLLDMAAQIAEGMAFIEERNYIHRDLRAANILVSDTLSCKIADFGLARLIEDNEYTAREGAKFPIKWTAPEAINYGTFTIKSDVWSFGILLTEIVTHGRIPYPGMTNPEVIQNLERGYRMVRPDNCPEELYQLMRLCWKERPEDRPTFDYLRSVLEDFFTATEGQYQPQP
Summary of the method: as §2

[5] = biological target: T5, Zap-70 (Homo sapiens, UniProt P43403); test: Kinase inhibition assay (33P transfer), Zap-70; conditions: read-out: Zap-1
T5 construct: Kinases are expressed as either kinase domains or full length constructs; made in house
T5 sequence (P43403 1-619): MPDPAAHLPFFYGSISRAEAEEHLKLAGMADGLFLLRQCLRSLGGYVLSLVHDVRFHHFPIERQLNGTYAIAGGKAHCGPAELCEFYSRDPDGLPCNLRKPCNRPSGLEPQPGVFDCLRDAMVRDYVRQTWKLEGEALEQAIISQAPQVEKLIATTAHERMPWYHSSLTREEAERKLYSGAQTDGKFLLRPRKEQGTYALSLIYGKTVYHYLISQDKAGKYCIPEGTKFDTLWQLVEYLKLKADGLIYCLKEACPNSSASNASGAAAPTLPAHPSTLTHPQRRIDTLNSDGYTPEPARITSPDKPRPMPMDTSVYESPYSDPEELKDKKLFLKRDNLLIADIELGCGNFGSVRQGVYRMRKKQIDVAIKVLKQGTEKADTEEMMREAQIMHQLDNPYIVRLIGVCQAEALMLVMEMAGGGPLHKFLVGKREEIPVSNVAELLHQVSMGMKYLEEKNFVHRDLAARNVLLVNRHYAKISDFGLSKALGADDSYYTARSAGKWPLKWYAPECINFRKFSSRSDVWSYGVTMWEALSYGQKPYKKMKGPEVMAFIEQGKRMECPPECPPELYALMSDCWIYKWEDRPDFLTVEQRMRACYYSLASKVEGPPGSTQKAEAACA
Summary of the method: as §2

[6] = biological target: T6, EGFR (Homo sapiens, UniProt P00533); test: Kinase inhibition assay (33P transfer), EGFR; conditions: Table 2, kinase inhibition class; read-out: EGFR-1
T6 construct: Kinases are expressed as either kinase domains or full length constructs; made in house
T6 sequence (P00533 25-1210, species assumed): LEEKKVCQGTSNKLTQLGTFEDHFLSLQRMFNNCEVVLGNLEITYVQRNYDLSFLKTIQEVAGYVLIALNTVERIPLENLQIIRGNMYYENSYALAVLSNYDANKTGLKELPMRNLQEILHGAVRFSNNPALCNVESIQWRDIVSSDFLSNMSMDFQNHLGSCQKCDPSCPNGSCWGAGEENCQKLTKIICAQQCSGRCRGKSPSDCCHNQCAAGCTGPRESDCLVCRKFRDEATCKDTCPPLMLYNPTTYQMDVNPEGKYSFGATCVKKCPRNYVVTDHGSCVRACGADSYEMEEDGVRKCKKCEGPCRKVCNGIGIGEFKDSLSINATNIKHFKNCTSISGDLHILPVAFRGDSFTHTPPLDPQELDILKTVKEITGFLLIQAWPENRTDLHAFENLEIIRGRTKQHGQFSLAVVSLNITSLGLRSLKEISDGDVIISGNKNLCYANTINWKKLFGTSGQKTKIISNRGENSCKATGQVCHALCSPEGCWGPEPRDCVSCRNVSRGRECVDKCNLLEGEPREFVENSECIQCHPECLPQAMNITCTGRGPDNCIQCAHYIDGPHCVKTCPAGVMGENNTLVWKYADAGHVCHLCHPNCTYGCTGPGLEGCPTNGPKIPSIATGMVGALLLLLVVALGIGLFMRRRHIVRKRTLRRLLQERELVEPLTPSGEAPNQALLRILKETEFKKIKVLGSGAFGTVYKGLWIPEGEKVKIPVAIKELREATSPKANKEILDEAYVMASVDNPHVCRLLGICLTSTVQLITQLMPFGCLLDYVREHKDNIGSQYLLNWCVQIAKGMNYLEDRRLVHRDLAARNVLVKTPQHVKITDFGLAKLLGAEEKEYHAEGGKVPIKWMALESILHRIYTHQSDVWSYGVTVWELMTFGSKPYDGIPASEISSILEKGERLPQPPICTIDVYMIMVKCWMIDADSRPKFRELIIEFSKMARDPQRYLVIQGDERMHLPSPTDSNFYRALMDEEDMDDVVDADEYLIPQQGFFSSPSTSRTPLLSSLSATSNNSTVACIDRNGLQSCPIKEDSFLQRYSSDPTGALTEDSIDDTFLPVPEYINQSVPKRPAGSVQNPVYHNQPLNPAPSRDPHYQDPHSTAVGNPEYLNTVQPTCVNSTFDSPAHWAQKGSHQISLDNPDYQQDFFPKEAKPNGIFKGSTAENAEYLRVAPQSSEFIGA
Summary of the method: as §1

[7] = biological target: T7, Itk (Homo sapiens, UniProt Q08881); test: Kinase inhibition assay (33P transfer), Itk; conditions: read-out: Itk-1
T7 construct: Kinases are expressed as either kinase domains or full length constructs; made in house
T7 sequence (Q08881 1-620): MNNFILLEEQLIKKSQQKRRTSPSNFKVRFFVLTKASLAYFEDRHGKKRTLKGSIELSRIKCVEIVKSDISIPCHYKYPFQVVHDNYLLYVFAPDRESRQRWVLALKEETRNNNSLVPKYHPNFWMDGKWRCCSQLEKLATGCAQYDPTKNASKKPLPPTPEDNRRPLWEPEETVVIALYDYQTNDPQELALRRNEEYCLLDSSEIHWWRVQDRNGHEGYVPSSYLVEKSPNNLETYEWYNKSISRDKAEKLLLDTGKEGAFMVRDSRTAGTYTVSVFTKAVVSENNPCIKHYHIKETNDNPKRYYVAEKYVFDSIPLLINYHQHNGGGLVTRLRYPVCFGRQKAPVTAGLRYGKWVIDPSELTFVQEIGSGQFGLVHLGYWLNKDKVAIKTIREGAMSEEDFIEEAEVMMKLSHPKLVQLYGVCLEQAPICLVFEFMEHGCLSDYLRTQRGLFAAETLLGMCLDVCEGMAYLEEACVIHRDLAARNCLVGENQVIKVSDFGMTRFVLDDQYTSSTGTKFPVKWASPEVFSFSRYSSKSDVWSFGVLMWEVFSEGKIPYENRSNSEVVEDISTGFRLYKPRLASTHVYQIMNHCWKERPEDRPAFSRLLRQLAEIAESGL
Summary of the method: as §1

[8] = biological target: T8, AKT (Homo sapiens, UniProt Q9Y243); test: Kinase inhibition assay (33P transfer), AKT; conditions: Table 2, kinase inhibition class; read-out: AKT3-1
T8 construct: Kinases are expressed as either kinase domains or full length constructs; made in house
T8 sequence (Q9Y243 whole entry, the tested form may be a part): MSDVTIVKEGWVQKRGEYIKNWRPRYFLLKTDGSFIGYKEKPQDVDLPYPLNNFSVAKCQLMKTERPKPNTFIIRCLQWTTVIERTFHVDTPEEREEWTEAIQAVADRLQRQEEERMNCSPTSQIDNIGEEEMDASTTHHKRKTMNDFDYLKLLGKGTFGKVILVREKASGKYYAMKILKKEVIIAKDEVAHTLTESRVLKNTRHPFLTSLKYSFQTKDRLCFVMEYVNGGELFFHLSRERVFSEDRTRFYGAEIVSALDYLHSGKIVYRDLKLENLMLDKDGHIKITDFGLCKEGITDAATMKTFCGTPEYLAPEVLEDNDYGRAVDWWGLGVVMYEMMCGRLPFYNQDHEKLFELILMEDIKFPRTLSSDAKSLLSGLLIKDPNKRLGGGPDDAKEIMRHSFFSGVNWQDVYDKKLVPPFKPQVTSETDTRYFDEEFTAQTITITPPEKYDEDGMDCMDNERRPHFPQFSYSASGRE
Summary of the method: as §2

[9] = biological target: T9, ErbB2 (Homo sapiens, UniProt P04626); test: Kinase inhibition assay (33P transfer), ErbB2; conditions: read-out: ErbB2-2
T9 construct: Kinases are expressed as either kinase domains or full length constructs; made in house
Description: The inhibitor compounds described herein are screened in the following manner. Kinases suitable for use in the following protocol to determine kinase activity of the compounds described herein include, -but are not limited to: Lck, Lyn, Src, Fyn, Syk, Zap-70, Itk, Tec, Btk, EGFR, ErbB2, Kdr, Flt-1, Flt-3, Tek, c-Met, InsR, and AKT.
Kinases are expressed as either kinase domains or full length constructs fused to glutathione S-transferase (GST) or polyHistidine tagged fusion proteins in either E. colior Baculovirus-High Five expression systems. They are purified to near homogeneity by affinity chromatography essentially as previously described (Lehr et al., 1996; Gish et al., 1995). In some instances, kinases are co-expressed or mixed with purified or partially purified regulatory polypeptides prior to measurement of activity.
Kinase activity and inhibition are measured essentially by established protocols (Braunwalder et al., 1996). Briefly, The transfer of ^33PO4 from ATP to the synthetic substrates poly(Glu, Tyr) 4:1 or poly(Arg, Ser) 3:1 attached to the bioactive surface of microtiter plates serves as the basis to evaluate enzyme activity. After an incubation period, the amount of phosphate transferred is measured by first washing the plate with 0.5% phosphoric acid, adding liquid scintillant, and then counting in a liquid scintillation detector. The IC50 is determined by the concentration of compound that causes a 50% reduction in the amount of […] incorporated onto the substrate bound to the plate.

[10] = biological target: T10, IGFR-1 (Homo sapiens, UniProt P08069); test: Kinase inhibition assay, IGFR-1 (Table 2); conditions: Table 2, kinase inhibition class
T10 construct: Kinases are expressed as either kinase domains or full length constructs; made in house

T1 sequence (Q02763 23-1124, species assumed): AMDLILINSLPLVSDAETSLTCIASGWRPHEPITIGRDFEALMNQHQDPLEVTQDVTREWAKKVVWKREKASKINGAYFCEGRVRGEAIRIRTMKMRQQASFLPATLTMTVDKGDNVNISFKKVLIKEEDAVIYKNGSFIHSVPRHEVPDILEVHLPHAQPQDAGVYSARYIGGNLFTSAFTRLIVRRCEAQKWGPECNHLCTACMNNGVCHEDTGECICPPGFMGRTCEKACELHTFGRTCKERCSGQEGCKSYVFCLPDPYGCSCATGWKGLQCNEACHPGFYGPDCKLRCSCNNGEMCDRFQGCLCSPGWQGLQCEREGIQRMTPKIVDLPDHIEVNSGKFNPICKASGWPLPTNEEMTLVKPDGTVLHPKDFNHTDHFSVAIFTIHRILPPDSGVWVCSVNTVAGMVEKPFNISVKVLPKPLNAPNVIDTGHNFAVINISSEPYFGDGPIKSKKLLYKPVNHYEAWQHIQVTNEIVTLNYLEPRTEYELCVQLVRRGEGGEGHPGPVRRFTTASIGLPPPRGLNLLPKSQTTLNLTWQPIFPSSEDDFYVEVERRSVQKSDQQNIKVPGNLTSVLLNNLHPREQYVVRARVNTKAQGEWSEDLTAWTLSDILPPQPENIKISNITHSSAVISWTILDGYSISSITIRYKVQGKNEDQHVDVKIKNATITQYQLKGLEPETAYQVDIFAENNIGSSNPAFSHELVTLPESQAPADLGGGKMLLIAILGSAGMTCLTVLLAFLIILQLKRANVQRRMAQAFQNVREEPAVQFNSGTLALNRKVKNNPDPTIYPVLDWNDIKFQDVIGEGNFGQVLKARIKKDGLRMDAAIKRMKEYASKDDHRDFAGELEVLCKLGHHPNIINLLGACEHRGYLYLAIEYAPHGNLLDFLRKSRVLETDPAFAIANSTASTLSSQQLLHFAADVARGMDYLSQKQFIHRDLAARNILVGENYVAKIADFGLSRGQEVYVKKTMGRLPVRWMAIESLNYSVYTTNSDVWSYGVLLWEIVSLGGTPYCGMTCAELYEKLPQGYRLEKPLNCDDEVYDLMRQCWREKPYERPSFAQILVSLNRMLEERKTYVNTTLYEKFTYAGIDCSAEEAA

Row | IC50 [1] [µM] | IC50 ([2]; Table 3) [µM] | IC50 [3] [µM] | IC50 ([4]; Table 3) [µM] | IC50 ([5]; Table 3) [µM] | IC50 [6] [µM] | IC50 ([7]; Table 3) [µM] | IC50 [8] [µM] | IC50 [2] [µM] | IC50 [4] [µM] | IC50 [5] [µM] | IC50 [7] [µM] | IC50 [9] [µM] | IC50 [10] [µM] | Structure (SMILES)
1 | > 10.3 | > 10.3 | > 10.3 | > 10.3 | > 10.3 | > 10.3 | > 10.3 | > 10.3 | – | – | – | – | – | – | COc1cc(Nc2ncnc(Nc3nc(-c4ccccc4)cs3)n2)cc(OC)c1OC [Compound 444]
2 | 6.18 to 9.01 | – | > 11.6 | – | – | > 11.6 | – | > 11.6 | 1.03 to 6.18 | 1.03 to 6.18 | > 11.6 | 9.01 to 11.6 | – | – | COc1cc(Nc2ncnc(-c3cccc4ccccc34)n2)cc(OC)c1OC [Compound 611]
3 | 1.05 to 6.33 | – | 1.05 to 6.33 | – | – | 1.05 to 6.33 | – | 1.05 to 6.33 | 1.05 to 6.33 | 1.05 to 6.33 | 1.05 to 6.33 | 9.22 to 11.9 | – | – | Nc1nc2ccccc2n1-c1ncnc(Nc2ccc(-c3ccccc3)cc2)n1 [Compound 480]
4 | 7.01 to 9.01 | 4.8 to 7.01 | > 9.01 | > 9.01 | > 9.01 | > 9.01 | > 9.01 | > 9.01 | – | – | – | – | – | – | COc1ccccc1Nc1nc2ccccc2n1-c1ncnc(Nc2cc(OC)c(OC)c(OC)c2)n1 [Compound 398]
5 | 0.851 to 5.11 | – | 0.851 to 5.11 | – | – | 5.11 to 7.45 | – | > 9.58 | 0.851 to 5.11 | 0.851 to 5.11 | 5.11 to 7.45 | 0.851 to 5.11 | – | – | COc1cc(Nc2ncnc(Nc3n[nH]c(Nc4ccc(Cl)cc4)n3)n2)cc(OC)c1OC [Compound 1003]
6 | 7.84 to 11.4 | – | 7.84 to 11.4 | – | – | 7.84 to 11.4 | – | > 14.7 | 7.84 to 11.4 | > 14.7 | 11.4 to 14.7 | > 14.7 | – | – | O=c1[nH]c2ccccc2n1-c1ncnc(Nc2ccncn2)n1 [Compound 492]
7 | 1.08 to 6.48 | 1.08 to 6.48 | 1.08 to 6.48 | 1.08 to 6.48 | 9.45 to 12.1 | 1.08 to 6.48 | 1.08 to 6.48 | 6.48 to 9.45 | – | – | – | – | – | – | Nc1nc2ccccc2n1-c1ncnc(Nc2ccc(-c3cnco3)cc2)n1 [Compound 438]
8 | > 11.8 | – | 1.05 to 6.28 | – | – | > 11.8 | – | > 11.8 | < 1.05 | 9.15 to 11.8 | > 11.8 | 1.05 to 6.28 | – | – | Nc1nc2ccccc2n1-c1ncnc(Nc2ccc(S(N)(=O)=O)cc2)n1 [Compound 923]
9 | > 11.9 | – | 6.36 to 9.27 | – | – | > 11.9 | – | > 11.9 | 1.06 to 6.36 | 6.36 to 9.27 | > 11.9 | 9.27 to 11.9 | 6.36 to 9.27 | < 1.06 | COc1cc(C)c(Nc2ncnc(-n3c(N)nc4ccccc43)n2)cc1OC [Compound 524]
